{"source": "BindingDB's records for patent US20250353833", "about": "(Universiteit Antwerpen, 2025)", "experiment_in_all_cases": "Biochemical Evaluation", "key": {"Dipeptidyl peptidase 2": {"target": "Dipeptidyl peptidase 2 (Homo sapiens, UniProt Q9UHL4)", "text": "(§1) Table 1 and 2: The compounds were biochemically evaluated against a panel consisting of all enzymatically active DASH enzymes (DPP4, DPP8, DPP9, DPP2, FAP) and PREP."}, "Prolyl endopeptidase": {"target": "T1, Prolyl endopeptidase (Homo sapiens, UniProt P48147)", "T1 sequence (P48147 whole entry)": "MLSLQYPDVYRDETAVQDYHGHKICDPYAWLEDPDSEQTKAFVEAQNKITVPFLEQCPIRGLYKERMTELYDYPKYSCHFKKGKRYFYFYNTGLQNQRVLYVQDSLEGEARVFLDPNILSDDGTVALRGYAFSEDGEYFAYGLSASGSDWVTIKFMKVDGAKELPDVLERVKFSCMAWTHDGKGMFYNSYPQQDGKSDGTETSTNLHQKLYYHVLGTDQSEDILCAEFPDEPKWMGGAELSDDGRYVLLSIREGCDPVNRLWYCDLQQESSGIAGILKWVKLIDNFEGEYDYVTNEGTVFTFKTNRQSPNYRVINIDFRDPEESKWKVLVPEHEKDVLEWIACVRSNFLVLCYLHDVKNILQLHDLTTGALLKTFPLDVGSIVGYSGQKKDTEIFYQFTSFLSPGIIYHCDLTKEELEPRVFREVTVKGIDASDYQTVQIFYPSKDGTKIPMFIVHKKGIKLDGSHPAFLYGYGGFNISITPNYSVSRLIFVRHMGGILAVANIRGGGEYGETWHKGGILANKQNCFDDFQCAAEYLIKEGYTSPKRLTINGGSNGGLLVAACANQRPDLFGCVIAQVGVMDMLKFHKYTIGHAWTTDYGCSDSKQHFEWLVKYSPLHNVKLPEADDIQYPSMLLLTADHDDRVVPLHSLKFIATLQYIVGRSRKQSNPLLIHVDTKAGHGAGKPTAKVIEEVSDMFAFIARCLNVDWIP", "text": "as §1"}, "Prolyl endopeptidase FAP": {"target": "T2, Prolyl endopeptidase FAP (Homo sapiens, UniProt Q12884)", "T2 sequence (Q12884 whole entry)": "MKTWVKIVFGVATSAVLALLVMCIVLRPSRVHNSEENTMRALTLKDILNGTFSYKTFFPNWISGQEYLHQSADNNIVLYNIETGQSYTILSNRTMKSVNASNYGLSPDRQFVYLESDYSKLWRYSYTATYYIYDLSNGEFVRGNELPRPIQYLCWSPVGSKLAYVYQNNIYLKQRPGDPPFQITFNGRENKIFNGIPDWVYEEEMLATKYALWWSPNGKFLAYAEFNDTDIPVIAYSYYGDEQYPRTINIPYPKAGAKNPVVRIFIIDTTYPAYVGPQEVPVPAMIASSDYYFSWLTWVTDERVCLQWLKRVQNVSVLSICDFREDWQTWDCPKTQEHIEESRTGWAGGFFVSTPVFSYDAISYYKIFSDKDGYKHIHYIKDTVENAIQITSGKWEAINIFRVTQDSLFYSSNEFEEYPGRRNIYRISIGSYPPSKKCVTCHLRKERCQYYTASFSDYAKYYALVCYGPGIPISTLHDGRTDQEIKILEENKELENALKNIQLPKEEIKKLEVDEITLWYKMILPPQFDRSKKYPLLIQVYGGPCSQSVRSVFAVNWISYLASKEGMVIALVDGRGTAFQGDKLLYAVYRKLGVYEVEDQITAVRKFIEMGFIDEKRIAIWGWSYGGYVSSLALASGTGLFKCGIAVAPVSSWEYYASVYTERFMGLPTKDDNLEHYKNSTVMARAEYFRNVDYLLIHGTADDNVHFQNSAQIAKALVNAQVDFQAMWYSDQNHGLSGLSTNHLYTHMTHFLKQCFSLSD", "text": "as §1"}}}
{"compound": "CC(C)(C)OC(=O)NC12CC3CC(CC(N)(C3)C1)C2", "note": "[US20250353833, Compound 4]", "values": [{"measurement": "IC50", "setting": "Dipeptidyl peptidase 2", "result": "> 5", "unit": "µM"}, {"measurement": "IC50", "setting": "Prolyl endopeptidase", "result": "> 10", "unit": "µM"}, {"measurement": "IC50", "setting": "Prolyl endopeptidase FAP", "result": "> 10", "unit": "µM"}]}
